Calls of active or inactive are those of the source. Rule as the data show it: actives have a measured IC50 and inactives only a lower limit.
Each molecule was assayed against Envelope glycoprotein gp160 (Human immunodeficiency virus 1, UniProt Q6QLK5) (assay: cell-free HIV fusion peptide-binding blockers – biochemical, uHTS, fluorescence dequenching, […] (AID 1986)).
Chain of Envelope glycoprotein gp160 (Q6QLK5 whole entry, the tested form may be a part): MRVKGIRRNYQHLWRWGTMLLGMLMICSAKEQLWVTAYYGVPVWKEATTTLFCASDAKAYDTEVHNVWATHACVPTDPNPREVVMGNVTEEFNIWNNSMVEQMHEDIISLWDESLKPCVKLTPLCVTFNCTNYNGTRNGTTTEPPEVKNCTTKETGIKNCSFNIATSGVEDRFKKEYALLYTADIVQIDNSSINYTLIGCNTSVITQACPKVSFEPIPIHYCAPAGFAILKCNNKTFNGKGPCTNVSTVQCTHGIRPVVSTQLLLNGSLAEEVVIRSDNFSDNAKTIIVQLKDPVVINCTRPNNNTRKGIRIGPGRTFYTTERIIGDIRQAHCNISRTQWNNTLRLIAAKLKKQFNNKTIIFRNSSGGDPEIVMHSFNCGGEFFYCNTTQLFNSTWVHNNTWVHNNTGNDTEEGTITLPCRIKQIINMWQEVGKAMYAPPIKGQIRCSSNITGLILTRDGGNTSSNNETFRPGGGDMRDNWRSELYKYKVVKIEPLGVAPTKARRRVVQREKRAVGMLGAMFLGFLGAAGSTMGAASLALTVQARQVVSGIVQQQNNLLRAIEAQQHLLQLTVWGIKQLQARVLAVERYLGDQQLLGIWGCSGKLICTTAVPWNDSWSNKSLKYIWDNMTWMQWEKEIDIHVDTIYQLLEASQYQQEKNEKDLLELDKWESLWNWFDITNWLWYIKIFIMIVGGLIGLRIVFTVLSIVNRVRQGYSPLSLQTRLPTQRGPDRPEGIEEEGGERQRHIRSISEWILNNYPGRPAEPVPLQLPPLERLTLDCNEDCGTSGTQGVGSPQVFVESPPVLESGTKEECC
For `CC(C)c1ccc(OCC(=O)Nc2cccc(C(=O)Nc3ccccc3C(=O)O)c2)cc1`, the IC50 was 16.9 µM (active).
With `Cc1cccc(OCC(=O)Nc2ccc(C(=O)Nc3ccccc3C(=O)O)cc2)c1C` the IC50 was 28.3 µM (active).
For `COc1cc(/C=C2\SC(=O)N(Cc3ccc(F)cc3)C2=O)cc([N+](=O)[O-])c1O`, the IC50 was 19.7 µM (active).
For `C/C(=N\Nc1ccc(C(=O)O)cc1)c1ccc2c(c1)Nc1ccccc1S2`, the IC50 was 15.4 µM (active).
For `O=C(O)c1ccc(Cl)c(S(=O)(=O)Nc2ccccc2C(=O)Nc2ccc(Cl)cc2)c1`, the IC50 was 17.9 µM (active).

Reference: ChEMBL document CHEMBL1201862, “PubChem BioAssay data set” (2004)
